Laboratory results as given in article PMC5063900, “A phase 1 study of the safety, tolerability, pharmacokinetics, and pharmacodynamics of TAK-063, a selective PDE10A inhibitor” (Psychopharmacology, 2016).

Experiment: Treatment-emergent adverse events, phase 1 single-rising-dose study in healthy subjects
Assay type: in vivo, human
Procedure: Healthy Japanese and non-Japanese subjects between 18 and 55 years of age were recruited to participate in the study. Criteria for exclusion included prior treatment with any investigational compound within 30 days of the first TAK-063 dose, a positive test for drugs of abuse or nicotine, and an increased risk for suicide. […] Following a washout period of 7 days, subjects in cohort 3 (100 mg) received the same dose (100 mg) but under fed conditions.
The study assessed safety and tolerability in all subjects for the 4-day study duration. The primary endpoints were the percentage of subjects who experienced at least one treatment-emergent adverse event (TEAE), as well as the percentage of subjects who met predefined criteria for safety laboratory tests, vital sign measurements, and safety parameters following TAK-063 administration. The secondary endpoints were PK parameters for TAK-063 and M-I, assessing drug exposure at each dose, and the effect of food coadministration on TAK-063 PK. Exploratory endpoints included the effects of TAK-063 on domains of cognition as assessed by a computerized battery, CNS Vital Signs (CNSVS).
Adverse events, clinical laboratory tests, vital signs, 12-lead electrocardiograms (ECGs), and Columbia-Suicide Severity Rating Scale (C-SSRS) were all monitored. Intensity of AEs was classified as mild, moderate, or severe, and each AE was classified as to its relation to study drug.
Laboratory tests evaluated hematology, serum chemistry, urine, and hormone levels. Vital signs and ECGs were collected at screening, check-in, within 1 h predose, serially postdose, and at study exit, while the C-SSRS was administered at screening, check-in, and study exit. Any events reported on the C-SSRS and clinically significant laboratory abnormalities were reported as AEs.

[1] = all subjects, single 30 mg dose (n = 11)
[2] = all subjects, single 100 mg dose (n = 11)
[3] = all subjects, single 300 mg dose (n = 11)
[4] = all subjects, single 1000 mg dose (n = 11)
[5] = non-Japanese subjects, TAK-063 Total (n = 36)
[6] = non-Japanese subjects, single 3 mg dose (n = 6)
[7] = non-Japanese subjects, single 10 mg dose (n = 6)
[8] = non-Japanese subjects, single 30 mg dose (n = 6)
[9] = non-Japanese subjects, single 100 mg dose (n = 6)
[10] = non-Japanese subjects, single 300 mg dose (n = 6)
[11] = non-Japanese subjects, single 1000 mg dose (n = 6)

## COc1cn(-c2ccc(-n3cccn3)cc2F)nc(-c2ccnn2-c2ccccc2)c1=O [TAK-063]
[1]
  Adverse event: Somnolence: 4 (36.4) n (%)
  Adverse event: Vomiting: 0 n (%)
[2]
  Adverse event: Anxiety: 0 n (%)
  Adverse event: Blurred vision: 0 n (%)
  Adverse event: Dizziness: 0 n (%)
  Adverse event: Dysarthria: 0 n (%)
  Adverse event: Epistaxis: 0 n (%)
  Adverse event: Headache: 1 (9.1) n (%)
  Adverse event: Hypotension: 1 (9.1) n (%)
  Adverse event: Muscle tightness: 0 n (%)
  Adverse event: Nausea: 0 n (%)
  Adverse event: Orthostatic hypotension: 1 (9.1) n (%)
  Adverse event: Orthostatic tachycardia: 2 (18.2) n (%)
  Adverse event: Somnolence: 7 (63.6) n (%)
  Adverse event: Vomiting: 1 (9.1) n (%)
[3]
  Adverse event: Anxiety: 0 n (%)
  Adverse event: Blurred vision: 0 n (%)
  Adverse event: Dizziness: 1 (9.1) n (%)
  Adverse event: Dysarthria: 0 n (%)
  Adverse event: Epistaxis: 0 n (%)
  Adverse event: Headache: 1 (9.1) n (%)
  Adverse event: Hypotension: 0 n (%)
  Adverse event: Muscle tightness: 0 n (%)
  Adverse event: Nausea: 0 n (%)
  Adverse event: Orthostatic hypotension: 1 (9.1) n (%)
  Adverse event: Orthostatic tachycardia: 1 (9.1) n (%)
  Adverse event: Somnolence: 5 (45.5) n (%)
  Adverse event: Vomiting: 1 (9.1) n (%)
[4]
  Adverse event: Anxiety: 1 (9.1) n (%)
  Adverse event: Blurred vision: 1 (9.1) n (%)
  Adverse event: Dizziness: 1 (9.1) n (%)
  Adverse event: Dysarthria: 1 (9.1) n (%)
  Adverse event: Epistaxis: 0 n (%)
  Adverse event: Headache: 0 n (%)
  Adverse event: Hypotension: 0 n (%)
  Adverse event: Muscle tightness: 0 n (%)
  Adverse event: Nausea: 1 (9.1) n (%)
  Adverse event: Orthostatic hypotension: 5 (45.5) n (%)
  Adverse event: Orthostatic tachycardia: 7 (63.6) n (%)
  Adverse event: Somnolence: 6 (54.5) n (%)
  Adverse event: Vomiting: 1 (9.1) n (%)
non-Japanese subjects treated with TAK-063
  Total incidence of TEAEs: 52.8%
[5]
  Adverse event: Anxiety: 1 (2.8) n (%)
  Adverse event: Blurred vision: 1 (2.8) n (%)
  Adverse event: Dizziness: 2 (5.6) n (%)
  Adverse event: Dysarthria: 1 (2.8) n (%)
  Adverse event: Headache: 1 (2.8) n (%)
  Adverse event: Hypotension: 1 (2.8) n (%)
  Adverse event: Nausea: 2 (5.6) n (%)
  Adverse event: Orthostatic hypotension: 3 (8.3) n (%)
  Adverse event: Orthostatic tachycardia: 8 (22.2) n (%)
  Adverse event: Somnolence: 12 (33.3) n (%)
  Adverse event: Vomiting: 1 (2.8) n (%)
[6]
  Adverse event: Anxiety: 0 n (%)
  Adverse event: Blurred vision: 0 n (%)
  Adverse event: Dizziness: 0 n (%)
  Adverse event: Dysarthria: 0 n (%)
  Adverse event: Headache: 0 n (%)
  Adverse event: Hypotension: 0 n (%)
  Adverse event: Nausea: 0 n (%)
  Adverse event: Orthostatic hypotension: 0 n (%)
  Adverse event: Orthostatic tachycardia: 2 (33.3) n (%)
  Adverse event: Somnolence: 0 n (%)
  Adverse event: Vomiting: 0 n (%)
[7]
  Adverse event: Anxiety: 0 n (%)
  Adverse event: Blurred vision: 0 n (%)
  Adverse event: Dizziness: 0 n (%)
  Adverse event: Dysarthria: 0 n (%)
  Adverse event: Headache: 0 n (%)
  Adverse event: Hypotension: 0 n (%)
  Adverse event: Nausea: 0 n (%)
  Adverse event: Orthostatic hypotension: 0 n (%)
  Adverse event: Orthostatic tachycardia: 0 n (%)
  Adverse event: Somnolence: 0 n (%)
  Adverse event: Vomiting: 0 n (%)
[8]
  Adverse event: Anxiety: 0 n (%)
  Adverse event: Blurred vision: 0 n (%)
  Adverse event: Dizziness: 1 (16.7) n (%)
  Adverse event: Dysarthria: 0 n (%)
  Adverse event: Headache: 0 n (%)
  Adverse event: Hypotension: 0 n (%)
  Adverse event: Nausea: 2 (33.3) n (%)
  Adverse event: Orthostatic hypotension: 0 n (%)
  Adverse event: Orthostatic tachycardia: 0 n (%)
  Adverse event: Somnolence: 3 (50.0) n (%)
  Adverse event: Vomiting: 0 n (%)
[9]
  Adverse event: Anxiety: 0 n (%)
  Adverse event: Blurred vision: 0 n (%)
  Adverse event: Dizziness: 0 n (%)
  Adverse event: Dysarthria: 0 n (%)
  Adverse event: Headache: 0 n (%)
  Adverse event: Hypotension: 1 (16.7) n (%)
  Adverse event: Nausea: 0 n (%)
  Adverse event: Orthostatic hypotension: 0 n (%)
  Adverse event: Orthostatic tachycardia: 2 (33.3) n (%)
  Adverse event: Somnolence: 3 (50.0) n (%)
  Adverse event: Vomiting: 0 n (%)
[10]
  Adverse event: Anxiety: 0 n (%)
  Adverse event: Blurred vision: 0 n (%)
  Adverse event: Dizziness: 1 (16.7) n (%)
  Adverse event: Dysarthria: 0 n (%)
  Adverse event: Headache: 1 (16.7) n (%)
  Adverse event: Hypotension: 0 n (%)
  Adverse event: Nausea: 0 n (%)
  Adverse event: Orthostatic hypotension: 0 n (%)
  Adverse event: Orthostatic tachycardia: 0 n (%)
  Adverse event: Somnolence: 3 (50.0) n (%)
  Adverse event: Vomiting: 1 (16.7) n (%)
[11]
  Adverse event: Anxiety: 1 (16.7) n (%)
  Adverse event: Blurred vision: 1 (16.7) n (%)
  Adverse event: Dizziness: 0 n (%)
  Adverse event: Dysarthria: 1 (16.7) n (%)
  Adverse event: Headache: 0 n (%)
  Adverse event: Hypotension: 0 n (%)
  Adverse event: Nausea: 0 n (%)
  Adverse event: Orthostatic hypotension: 3 (50.0) n (%)
  Adverse event: Orthostatic tachycardia: 4 (66.7) n (%)
  Adverse event: Somnolence: 3 (50.0) n (%)
  Adverse event: Vomiting: 0 n (%)
Single dose
  Association with hyperprolactinemia, hyperglycemia, or other metabolic disturbances: not associated
Single doses 3 to 1000 mg
  Deaths, serious AEs: No deaths or other serious AEs were reported
Single doses up to 1000 mg
  Maximum tolerated dose: not defined
  Safety and tolerability: safe and well tolerated
